Assay results published in patent US9108950B2, “1-pyrazolyl-3-(4-((2-anilinopyrimidin-4-yl)oxy)napththalen-1-yl) ureas as p38 MAP kinase inhibitors” (Respivert Ltd., priority 2011, dated 2015).

How the values were obtained:
[1] = Chemical stability by HPLC; assay type: physicochemical; conditions: form B micronized
Method: Analyses were carried out on a Waters Xbridge C18 column (3.0×150 mm; 3.5 μm) using the following operating conditions: column temperature: 40° C.; sample temperature: 5° C.; flow rate: 0.45 mL/min; injection volume: 7 μL; UV detection at 260 nm; mobile phase composition comprised of Phase A: 10 mM ammonium acetate+0.1%, v/v trifluoroacetic acid in water and Phase B: acetonitrile, using the gradient defined by the parameters below (Table 2).
The reference and comparative samples were then analyzed by HPLC using the method described in General Procedures and by visual inspection.

[2] = test system: BEAS2B cells; assay: Poly I:C-induced ICAM-1 expression in BEAS2B cells; assay type: cell-based; conditions: Homo sapiens, BEAS-2B, read-out: PolyIC/ICAM1 IC50 (BEAS2B)
Method: Poly I:C was used in these studies as a simple, RNA virus mimic. Poly I:C-Oligofectamine mixture (1 μg/mL Poly I:C, ±2% Oligofectamine, 25 μL; Invivogen Ltd., San Diego, Calif., and Invitrogen, Carlsbad, Calif., respectively) was transfected into BEAS2B cells (human bronchial epithelial cells, ATCC). Cells were pre-incubated with final concentrations of test compounds for 2 hr and the level of ICAM-1 expression on the cell surface was determined by cell-based ELISA. […]
The cells were washed with PBS-Tween (3×200 μL) and incubated with the secondary antibody (100 μL; HRP-conjugated anti-rabbit IgG, Dako Ltd., Glostrup, Denmark). […] The ICAM-1 signal was detected by reading […] the absorbance at 450 nm against a reference wavelength of 655 nm using a spectrophotometer. The cells were then washed with PBS-Tween (3×200 μL) and total cell numbers in each well were determined by reading absorbance at 595 nm after Crystal Violet staining (50 μL of a 2% solution in PBS) and elution by 1% SDS solution (100 μL) in distilled water. The measured OD 450-655 readings were corrected for cell number by dividing with the OD595 reading in each well. The inhibition of ICAM-1 expression was calculated at each concentration of test compound by comparison with vehicle control.

[3] = test system: Cigarette Smoke Model; assay: Cigarette smoke model; assay type: in vivo, A/J mice
Method: A/J mice (males, 5 weeks old) were exposed to cigarette smoke (4% cigarette smoke, diluted with air) for 30 min/day for 11 days using a Tobacco Smoke Inhalation Experiment System for small animals (Model SIS-CS; Sibata Scientific Technology, Tokyo, Japan). […] At 12 hr after the last dosing, each of the animals was anesthetized, the trachea cannulated and bronchoalveolar lavage fluid (BALF) was collected. The numbers of alveolar macrophages and neutrophils were determined by FACS analysis (EPICS® ALTRA II, Beckman Coulter, Inc., Fullerton, Calif., USA) using anti-mouse MOMA2 antibody (macrophage) or anti-mouse 7/4 antibody (neutrophil). BALF was centrifuged and the supernatant was collected. The level of keratinocyte chemoattractant (KC; CXCL1) in BALF was quantitated using a Quentikine® mouse KC ELISA kit (R&D systems, Inc., Minneapolis, Minn., USA).

[4] = Dynamic vapour sorption; assay type: physicochemical; conditions: form B micronized
Method: Plots were obtained using a Surface Measurement Systems dynamic vapor sorption model DVS-1 using about 10 mg of the sample. The weight change was recorded with respect to atmospheric humidity at 25° C. and was determined using the following parameters: drying: 60 min under dry nitrogen; equilibrium: 60 min/step; data interval: 0.05% or 2.0 min. The relative humidity [RH %] measurement points were as follows:
The DVS isotherm plot for the micronized reference sample is illustrated in FIG. 4 and the DVS change in mass plot for the micronized reference sample is illustrated in FIG. 5. […] The product adsorbed up to 0.4% moisture depending on the atmospheric humidity.

SMILES: Cc1ccc(-n2nc(C(C)(C)C)cc2NC(=O)Nc2ccc(Oc3ccnc(Nc4ccccc4)n3)c3ccccc23)cc1 [Compound (I), 1-(3-(tert-Butyl)-1-(p-tolyl)-1H-pyrazol-5-yl)-3-(4-((2-(phenylamino)pyrimidin-4-yl)oxy)naphthalen-1-yl)urea]
- chemical stability [1]: chemically stable
- sensitivity to light [1]: some sensitivity to light was observed
- Appearance ([1]; 40° C./75% RH, 1 week): off-white
- Sum of impurities by HPLC ([1]; 40° C./75% RH, 1 week): 0.66%
- Appearance ([1]; 40° C./75% RH, 4 weeks): off-white
- Sum of impurities by HPLC ([1]; 40° C./75% RH, 4 weeks): 0.68%
- Appearance ([1]; 50° C., 1 week): off-white
- Sum of impurities by HPLC ([1]; 50° C., 1 week): 0.69%
- Appearance ([1]; 50° C., 4 weeks): off-white
- Sum of impurities by HPLC ([1]; 50° C., 4 weeks): 0.66%
- Appearance ([1]; 70° C./75% RH, 1 week): off-white
- Sum of impurities by HPLC ([1]; 70° C./75% RH, 1 week): 0.73%
- Appearance ([1]; 80° C., 1 week): off-white
- Sum of impurities by HPLC ([1]; 80° C., 1 week): 0.73%
- Appearance ([1]; 0.3 day, ICH light): off-white
- Sum of impurities by HPLC ([1]; 0.3 day, ICH light (700 W/m^2)): 1.44%
- Appearance ([1]; RT/56% RH, 4 weeks): off-white
- Sum of impurities by HPLC ([1]; RT/56% RH, 4 weeks): 0.67%
- Appearance ([1]; RT/75% RH, 4 weeks): off-white
- Sum of impurities by HPLC ([1]; RT/75% RH, 4 weeks): 0.67%
- Appearance ([1]; RT/<5% RH, 4 weeks): off-white
- Sum of impurities by HPLC ([1]; RT/<5% RH, 4 weeks): 0.67%
- Appearance ([1]; T = zero): off-white
- Sum of impurities by HPLC ([1]; T = zero): 0.66%
- IC50 [2]: 10.2 nM
- CXCL1 in BALF % inhibition ([3]; 0.32 μg/mL): 0%
- Macrophage % inhibition ([3]; 0.32 μg/mL): 11%
- Neutrophil % inhibition ([3]; 0.32 μg/mL): 12%
- Neutrophil cell numbers in BALF ([3]; 0.32 μg/mL): 12.4 ± 0.32 × 10^4/mL
- Macrophage cell numbers in BALF ([3]; 0.32 μg/mL intra-nasal, tobacco smoke): 13.3 ± 0.20 × 10^4/mL
- CXCL1 in BALF ([3]; 0.32 μg/mL, tobacco smoke): 13.6 ± 1.69 pg/mL
- CXCL1 in BALF ([3]; 1.6 μg/mL): 12.2 ± 0.96 pg/mL
- CXCL1 in BALF % inhibition ([3]; 1.6 μg/mL): 26%
- Macrophage % inhibition ([3]; 1.6 μg/mL): 28%
- Macrophage cell numbers in BALF ([3]; 1.6 μg/mL): 11.6 ± 0.42 × 10^4/mL
- Neutrophil % inhibition ([3]; 1.6 μg/mL): 29%
- Neutrophil cell numbers in BALF ([3]; 1.6 μg/mL): 10.5 ± 0.06 × 10^4/mL
- CXCL1 in BALF ([3]; 8.0 μg/mL): 11.4 ± 0.15 pg/mL
- CXCL1 in BALF % inhibition ([3]; 8.0 μg/mL): 41%
- Macrophage % inhibition ([3]; 8.0 μg/mL): 43%
- Macrophage cell numbers in BALF ([3]; 8.0 μg/mL): 10.1 ± 0.42 × 10^4/mL
- Neutrophil % inhibition ([3]; 8.0 μg/mL): 41%
- Neutrophil cell numbers in BALF ([3]; 8.0 μg/mL): 9.1 ± 0.28 × 10^4/mL
- CXCL1 in BALF ([3]; 40 μg/mL): 9.5 ± 0.84 pg/mL
- CXCL1 in BALF % inhibition ([3]; 40 μg/mL): 76%
- Macrophage % inhibition ([3]; 40 μg/mL): 64%
- Macrophage cell numbers in BALF ([3]; 40 μg/mL): 7.9 ± 0.20 × 10^4/mL
- Neutrophil % inhibition ([3]; 40 μg/mL): 52%
- Neutrophil cell numbers in BALF ([3]; 40 μg/mL): 7.9 ± 0.34 × 10^4/mL
- effect on cigarette smoke induced CXCL1 (KC) production in BALF ([3]; mice): inhibited
- effect on macrophage and neutrophil accumulation in BALF induced by cigarette smoke ([3]; mice): dose-dependent inhibition
- hygroscopic behavior (DVS) [4]: no hygroscopic behavior
- moisture adsorbed (DVS) ([4]; depending on atmospheric humidity, 25° C.): up to 0.4%
